Results from patent publication US11331369B2, “Endoparasitic depsipeptides” (Zoetis Services LLC, priority 2017, dated 2022).

How the values were obtained:
[1] = tested on: 4th stage larvae (L4) of Dirofilaria immitis; assay: Dirofilaria immitis, L4 Stage (DiL4) In Vitro Assay; assay type: cell-based; conditions: Dirofilaria immitis, 72 h, read-out: DiL4 Minimum Effective Dose (MED), approximately 72 hours incubation; L4 larvae assessed for survival or paralysis
[2] = tested on: third stage larvae of Haemonchus contortus; assay: Haemonchus contortus L3 (HcL3) Assay; assay type: cell-based; conditions: 96 h, read-out: HcL3 Minimum Effective Dose (MED)

## Cc1cccc(-c2ccnn2Cc2ccc(C[C@H]3OC(=O)[C@H](CC(C)C)N(C)C(=O)[C@@H](C)OC(=O)[C@H](CC(C)C)N(C)C(=O)[C@@H](Cc4ccc(Cn5nccc5-c5cccc(C)n5)cc4)OC(=O)[C@H](CC(C)C)N(C)C(=O)[C@@H](C)OC(=O)[C@H](CC(C)C)N(C)C3=O)cc2)n1 [Example 1b-177, (3S,6R,9S,12R,15S,18R,21S,24R)-3,9,15,21-tetraisobutyl-4,6,10,16,18,22-hexamethyl-12,24-bis(4-((5-(6-methylpyridin-2-yl)-1H-pyrazol-1-yl)methyl)benzyl)-1,7,13,19-tetraoxa-4,10,16,22-tetraazacyclotetracosan-2,5,8,11,14,17,20,23-octaone]
[1]
  minimal effective concentration: ≤ 0.0001 µM
[2]
  minimal effective concentration: ≤ 1 µM

## CC(C)C[C@H]1C(=O)O[C@H](Cc2ccc(Cn3ccnc3Br)cc2)C(=O)N(C)[C@@H](CC(C)C)C(=O)O[C@H](C)C(=O)N(C)[C@@H](CC(C)C)C(=O)O[C@H](Cc2ccc(Cn3ccnc3Br)cc2)C(=O)N(C)[C@@H](CC(C)C)C(=O)O[C@H](C)C(=O)N1C [Example 6-3, (3S,6R,9S,12R,15S,18R,21S,24R)-6,18-bis[[4-[(2-bromoimidazol-1-yl)methyl]phenyl]methyl]-3,9,15,21-tetraisobutyl-4,10,12,16,22,24-hexamethyl-1,7,13,19-tetraoxa-4,10,16,22-tetrazacyclotetracosane-2,5,8,11,14,17,20,23-octaone]
[1]
  minimal effective concentration: ≤ 0.0001 µM
[2]
  minimal effective concentration: 1 to 10 µM

## CC(C)C[C@H]1C(=O)O[C@H](Cc2ccc(Cn3ccnc3Cl)cc2)C(=O)N(C)[C@@H](CC(C)C)C(=O)O[C@H](C)C(=O)N(C)[C@@H](CC(C)C)C(=O)O[C@H](Cc2ccccc2)C(=O)N(C)[C@@H](CC(C)C)C(=O)O[C@H](C)C(=O)N1C [Example 8-9, (3S,6R,9S,12R,15S,18R,21S,24R)-6-benzyl-18-(4-((2-chloro-1H-imidazol-1-yl)methyl)benzyl)-3,9,15,21-tetraisobutyl-4,10,12,16,22,24-hexamethyl-1,7,13,19-tetraoxa-4,10,16,22-tetraazacyclotetracosan-2,5,8,11,14,17,20,23-octaone]
[1]
  minimal effective concentration: 0.0001 to 0.001 µM
[2]
  minimal effective concentration: 1 to 10 µM

## CC(C)C[C@H]1C(=O)O[C@H](Cc2ccc(Cn3nccc3-c3cnccn3)cc2)C(=O)N(C)[C@@H](CC(C)C)C(=O)O[C@H](C)C(=O)N(C)[C@@H](CC(C)C)C(=O)O[C@H](Cc2ccc(Cn3nccc3-c3cnccn3)cc2)C(=O)N(C)[C@@H](CC(C)C)C(=O)O[C@H](C)C(=O)N1C [Example 1b-208, (3S,6R,9S,12R,15S,18R,21S,24R)-3,9,15,21-tetraisobutyl-4,6,10,16,18,22-hexamethyl-12,24-bis(4-((5-(pyrazin-2-yl)-1H-pyrazol-1-yl)methyl)benzyl)-1,7,13,19-tetraoxa-4,10,16,22-tetraazacyclotetracosan-2,5,8,11,14,17,20,23-octaone]
[1]
  minimal effective concentration: 0.001 to 0.01 µM
[2]
  minimal effective concentration: 10 to 100 µM

## CC(C)C[C@H]1C(=O)O[C@H](Cc2ccc(Cn3nccc3-c3ccc(F)cn3)cc2)C(=O)N(C)[C@@H](CC(C)C)C(=O)O[C@H](C)C(=O)N(C)[C@@H](CC(C)C)C(=O)O[C@H](Cc2ccc(Cn3nccc3-c3ccc(F)cn3)cc2)C(=O)N(C)[C@@H](CC(C)C)C(=O)O[C@H](C)C(=O)N1C [Example 1b-189, (3S,6R,9S,12R,15S,18R,21S,24R)-6,18-bis(4-((5-(5-fluoropyridin-2-yl)-1H-pyrazol-1-yl)methyl)benzyl)-3,9,15,21-tetraisobutyl-4,10,12,16,22,24-hexamethyl-1,7,13,19-tetraoxa-4,10,16,22-tetraazacyclotetracosan-2,5,8,11,14,17,20,23-octaone]
[1]
  minimal effective concentration: 0.0001 to 0.001 µM
[2]
  minimal effective concentration: 10 to 100 µM

## COCc1ccn(Cc2ccc(C[C@H]3OC(=O)[C@H](CC(C)C)N(C)C(=O)[C@@H](C)OC(=O)[C@H](CC(C)C)N(C)C(=O)[C@@H](Cc4ccc(Cn5nccc5COC)cc4)OC(=O)[C@H](CC(C)C)N(C)C(=O)[C@@H](C)OC(=O)[C@H](CC(C)C)N(C)C3=O)cc2)n1 [Example 1a-37, (3S,6R,9S,12R,15S,18R,21S,24R)-3,9,15,21-tetraisobutyl-6-(4-((3-(methoxymethyl)-1H-pyrazol-1-yl)methyl)benzyl)-18-(4-((5-(methoxymethyl)-1H-pyrazol-1-yl)methyl)benzyl)-4,10,12,16,22,24-hexamethyl-1,7,13,19-tetraoxa-4,10,16,22-tetraazacyclotetracosan-2,5,8,11,14,17,20,23-octaone]
[1]
  minimal effective concentration: 0.0001 to 0.001 µM
[2]
  minimal effective concentration: 1 to 10 µM

## CCOc1cnn(C(C)(C)c2ccc(C[C@H]3OC(=O)[C@H](CC(C)C)N(C)C(=O)[C@@H](C)OC(=O)[C@H](CC(C)C)N(C)C(=O)[C@@H](Cc4ccc(C(C)(C)n5cc(OCC)cn5)cc4)OC(=O)[C@H](CC(C)C)N(C)C(=O)[C@@H](C)OC(=O)[C@H](CC(C)C)N(C)C3=O)cc2)c1 [Example 1b-171, (3S,6R,9S,12R,15S,18R,21S,24R)-6,18-bis(4-(2-(4-ethoxy-1H-pyrazol-1-yl)propan-2-yl)benzyl)-3,9,15,21-tetraisobutyl-4,10,12,16,22,24-hexamethyl-1,7,13,19-tetraoxa-4,10,16,22-tetraazacyclotetracosan-2,5,8,11,14,17,20,23-octaone]
[1]
  minimal effective concentration: ≤ 0.0001 µM
[2]
  minimal effective concentration: ≤ 1 µM

## CCOc1ccn(Cc2ccc(C[C@H]3OC(=O)[C@H](CC(C)C)N(C)C(=O)[C@@H](C)OC(=O)[C@H](CC(C)C)N(C)C(=O)[C@@H](Cc4ccc(Cn5ccc(OCC)n5)cc4)OC(=O)[C@H](CC(C)C)N(C)C(=O)[C@@H](C)OC(=O)[C@H](CC(C)C)N(C)C3=O)cc2)n1 [Example 1b-104, (3S,6R,9S,12R,15S,18R,21S,24R)-6,18-bis(4-((3-ethoxy-1H-pyrazol-1-yl)methyl)benzyl)-3,9,15,21-tetraisobutyl-4,10,12,16,22,24-hexamethyl-1,7,13,19-tetraoxa-4,10,16,22-tetraazacyclotetracosan-2,5,8,11,14,17,20,23-octaone]
[1]
  minimal effective concentration: 0.0001 to 0.001 µM
[2]
  minimal effective concentration: ≤ 1 µM

## CC(C)C[C@H]1C(=O)O[C@H](Cc2ccc(C3(n4cc(OC(C)C)cn4)CCC3)cc2)C(=O)N(C)[C@@H](CC(C)C)C(=O)O[C@H](C)C(=O)N(C)[C@@H](CC(C)C)C(=O)O[C@H](Cc2ccc(C3(n4cc(OC(C)C)cn4)CCC3)cc2)C(=O)N(C)[C@@H](CC(C)C)C(=O)O[C@H](C)C(=O)N1C [Example 1c-3, (3S,6R,9S,12R,15S,18R,21S,24R)-3,9,15,21-tetraisobutyl-6,18-bis(4-(1-(4-isopropoxy-1H-pyrazol-1-yl)cyclobutyl)benzyl)-4,10,12,16,22,24-hexamethyl-1,7,13,19-tetraoxa-4,10,16,22-tetraazacyclotetracosan-2,5,8,11,14,17,20,23-octaone]
[1]
  minimal effective concentration: ≤ 0.0001 µM
[2]
  minimal effective concentration: ≤ 1 µM
